Measured values: patent US20250057994A1, “LABELED COMPOUNDS AND CALCIUM SENSING RECEPTOR LIGANDS FOR IMAGING AND USES THEREOF” (The University of North Carolina at Chapel Hill, priority 2021, published 2025)

Assays:
[1] = In vivo acute toxicity study with overdose of cold standard; set-up: species or system JAX Swiss Outbred mice; conditions: for ALP (alkaline phosphatase) / ALT (alanine aminotransferase) / AST (aminotransferase) / BUN (blood urea nitrogen) / creatinine: mice plasma
Procedure: In vivo Toxicity study. An In vivo acute toxicity study of [^19F]F-cinacalcet was carried out in JAX Swiss Outbred mice. The mice were injected intravenously with an overdose of cold standard [^19F]F-cinacalcet (57.6 μg, ˜1000 times greater than the radiotracer [^18F]F-cinacalcet dose). Plasma samples were collected and analyzed at various time points. […] Alkaline phosphatase (ALP) and alanine transaminase (ALT) are two important biological indicators associated with liver function. […] It is very common to see a transient increase in blood AST after drug administration, which usually has no actual pathological significance. Blood urea nitrogen (BUN) and creatinine are two critical indicators for evaluating kidney function. There were no significant changes in BUN and creatinine levels in the mice injected with [^19F]F-cinacalcet compared with the vehicle controls. In addition, histopathological staining was performed on the kidney, liver, and heart tissues collected at different time points. […] The basic structures of the glomerulus, renal tubulus, liver lobule central vein, and cardiac muscle fibers remained intact.

[2] = target: T1, CSR (Homo sapiens, UniProt P41180); experiment: Cell uptake and specific blocking assays in Hcc827 cells; conditions: blocker 100 μM
T1 sequence (P41180 20-1078): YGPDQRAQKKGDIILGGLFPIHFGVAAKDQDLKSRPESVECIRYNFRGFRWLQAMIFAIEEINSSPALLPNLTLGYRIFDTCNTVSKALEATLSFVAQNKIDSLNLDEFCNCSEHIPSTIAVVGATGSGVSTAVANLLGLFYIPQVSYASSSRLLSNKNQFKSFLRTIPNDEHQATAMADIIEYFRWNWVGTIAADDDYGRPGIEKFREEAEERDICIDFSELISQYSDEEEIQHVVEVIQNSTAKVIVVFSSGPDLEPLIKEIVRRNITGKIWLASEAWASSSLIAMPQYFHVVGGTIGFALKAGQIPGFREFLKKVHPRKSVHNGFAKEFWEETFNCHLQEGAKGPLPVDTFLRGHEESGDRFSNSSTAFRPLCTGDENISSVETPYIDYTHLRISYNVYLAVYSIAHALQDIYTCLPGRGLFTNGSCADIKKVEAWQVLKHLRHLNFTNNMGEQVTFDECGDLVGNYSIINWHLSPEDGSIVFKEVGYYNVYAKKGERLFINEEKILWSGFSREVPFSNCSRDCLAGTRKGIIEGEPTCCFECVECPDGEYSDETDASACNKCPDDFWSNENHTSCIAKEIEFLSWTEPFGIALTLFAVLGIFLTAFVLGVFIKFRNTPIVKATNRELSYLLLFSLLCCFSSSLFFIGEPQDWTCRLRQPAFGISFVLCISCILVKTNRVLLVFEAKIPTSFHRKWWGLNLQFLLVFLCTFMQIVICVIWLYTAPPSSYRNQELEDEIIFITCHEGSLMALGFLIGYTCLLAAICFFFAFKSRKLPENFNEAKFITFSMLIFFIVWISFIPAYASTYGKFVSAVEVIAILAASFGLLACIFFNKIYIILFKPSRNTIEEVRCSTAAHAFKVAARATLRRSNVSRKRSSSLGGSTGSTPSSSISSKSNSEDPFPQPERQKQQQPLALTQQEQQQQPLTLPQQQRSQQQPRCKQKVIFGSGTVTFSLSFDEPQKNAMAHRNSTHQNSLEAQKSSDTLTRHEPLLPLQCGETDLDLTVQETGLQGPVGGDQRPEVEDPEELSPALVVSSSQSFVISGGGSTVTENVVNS

## C[C@@H](NCCCc1cccc(C(F)(F)F)c1)c1ccc(F)c2ccccc12 [[^19F]F-ZW-cinacalcet]
[1]; 2 weeks after overdose
  ALP (alkaline phosphatase): 80.33 ± 9.00 U/L
  ALT (alanine aminotransferase): 24.67 ± 0.94 U/L
  AST (aminotransferase): 82 ± 28.6 U/L
  BUN (blood urea nitrogen): 18 ± 0.82 mg/dL
  creatinine: 0.18 ± 0.01 mg/dL
[1]; 1 h after overdose
  ALP (alkaline phosphatase): 87.67 ± 13.70 U/L
  ALT (alanine aminotransferase): 29.33 ± 3.10 U/L
  AST (aminotransferase): 82.67 ± 21.68 U/L
  BUN (blood urea nitrogen): 17 ± 1.41 mg/dL
  creatinine: 0.24 ± 0.09 mg/dL
[1]; 24 h after overdose
  ALP (alkaline phosphatase): 54 ± 9.09 U/L
  ALT (alanine aminotransferase): 31.33 ± 9.10 U/L
  AST (aminotransferase): 104.67 ± 45.38 U/L
  BUN (blood urea nitrogen): 18.33 ± 1.25 mg/dL
  creatinine: 0.25 ± 0.11 mg/dL
[1]; mice, i.v. overdose 57.6 μg
  Acute toxicity: no acute toxicity
[1]; mice, i.v. overdose 57.6 μg, study period
  Mortality and health changes: No animal deaths and significant health changes were observed
[1]; mice, i.v. overdose, different time points
  Histopathology of kidney, liver and heart (HE staining): no obvious pathological changes
[2]; 20 min post incubation
  Block of [18F]F-ZW-cinacalcet uptake: 89.9%
[2]; other time points
  Block of [18F]F-ZW-cinacalcet uptake: More than 87%
